The record followed here is the Kinase Knowledgebase extract (Sharma et al. 2016).

The target of the experiment is PIK3CD (Human) (UniProt O00329). Nature of the experiment: Assessment of PIK3CD Kinase Activity.
Sequence of PIK3CD (Human) (O00329 whole entry, looked up): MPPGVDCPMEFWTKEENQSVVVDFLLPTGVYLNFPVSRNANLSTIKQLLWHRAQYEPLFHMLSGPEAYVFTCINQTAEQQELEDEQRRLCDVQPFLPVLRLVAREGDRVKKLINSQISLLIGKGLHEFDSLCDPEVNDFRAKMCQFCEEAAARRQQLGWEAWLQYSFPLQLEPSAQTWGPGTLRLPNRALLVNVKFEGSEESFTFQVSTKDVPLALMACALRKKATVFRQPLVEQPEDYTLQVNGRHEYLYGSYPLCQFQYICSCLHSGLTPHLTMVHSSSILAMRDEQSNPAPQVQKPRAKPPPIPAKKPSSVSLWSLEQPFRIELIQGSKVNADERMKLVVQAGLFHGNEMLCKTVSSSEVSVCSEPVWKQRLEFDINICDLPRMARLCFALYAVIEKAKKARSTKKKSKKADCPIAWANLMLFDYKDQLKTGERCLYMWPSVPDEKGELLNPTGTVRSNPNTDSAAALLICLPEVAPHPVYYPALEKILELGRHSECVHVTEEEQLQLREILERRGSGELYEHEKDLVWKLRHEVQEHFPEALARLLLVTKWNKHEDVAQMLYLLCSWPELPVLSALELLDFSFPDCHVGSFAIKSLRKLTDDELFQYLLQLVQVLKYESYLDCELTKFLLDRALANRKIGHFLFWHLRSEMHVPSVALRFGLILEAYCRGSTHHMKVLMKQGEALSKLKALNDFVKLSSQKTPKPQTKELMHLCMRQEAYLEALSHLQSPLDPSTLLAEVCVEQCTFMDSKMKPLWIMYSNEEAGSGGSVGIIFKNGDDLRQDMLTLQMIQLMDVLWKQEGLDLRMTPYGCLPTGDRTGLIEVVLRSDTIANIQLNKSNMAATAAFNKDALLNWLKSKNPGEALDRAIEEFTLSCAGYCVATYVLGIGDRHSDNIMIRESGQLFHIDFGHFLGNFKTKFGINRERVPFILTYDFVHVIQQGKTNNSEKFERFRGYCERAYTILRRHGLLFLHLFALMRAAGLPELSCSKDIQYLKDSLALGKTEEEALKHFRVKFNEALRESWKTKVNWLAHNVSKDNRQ
For the compound `c1cc(-c2nc(N3CCOCC3)c3sc(CN4CCN(Cc5ccncc5)CC4)cc3n2)c2cn[nH]c2c1`, the concentration for half-maximal inhibition (IC50) – broadly, the concentration that gives 50% inhibition – was at most 0.1 µM.
As to `CN(C)C(=O)CN1CCN(Cc2cc3nc(-c4cccc5[nH]ncc45)nc(N4CCOCC4)c3s2)CC1`, the half-inhibitory concentration (IC50) was at most 0.1 µM.
On to `c1ccc(NC2CCN(Cc3cc4nc(-c5cccc6[nH]ncc56)nc(N5CCOCC5)c4s3)CC2)nc1`, for which the IC50 was at most 0.1 µM.
With `O=C(N1CCOCC1)N1CCN(Cc2cc3nc(-c4cccc5[nH]ncc45)nc(N4CCOCC4)c3s2)CC1`, the IC50 is at most 0.1 µM.
On to `COCC1CN(Cc2cc3nc(-c4cccc5[nH]ncc45)nc(N4CCOCC4)c3s2)CCN1S(C)(=O)=O` (stereo unspecified), for which the half-maximal inhibitory concentration (IC50) is at most 0.1 µM.
As for `c1cc(-c2nc(N3CCOCC3)c3sc(CN4CCC(N5CCCCC5)CC4)cc3n2)c2cn[nH]c2c1`, the IC50 is at most 0.1 µM.
Turning to `CC(C)(CO)N1CCN(Cc2cc3nc(-c4cccc5[nH]ncc45)nc(N4CCOCC4)c3s2)CC1`, the 50% inhibitory concentration (IC50) is at most 0.1 µM.
To `COCC1(N2CCN(Cc3cc4nc(-c5cccc6[nH]ncc56)nc(N5CCOCC5)c4s3)CC2)CC1` belongs at most 0.1 µM; to `COCC(C)(C)N1CCN(Cc2cc3nc(-c4cccc5[nH]ncc45)nc(N4CCOCC4)c3s2)CC1`, at most 0.1 µM; to `CN(C)S(=O)(=O)N1CCN(Cc2cc3nc(-c4cccc5[nH]ncc45)nc(N4CCOCC4)c3s2)CC1`, at most 0.1 µM.
`c1cc(-c2nc(N3CCOCC3)c3sc(CN4CCN(Cc5nccs5)CC4)cc3n2)c2cn[nH]c2c1` had a concentration for half-maximal inhibition (IC50) of at most 0.1 µM.
`CN(C)C(=O)CN1CCN(Cc2cc3nc(-c4cccc5[nH]ccc45)nc(N4CCOCC4)c3s2)CC1` came in with an IC50 of at most 0.1 µM.
As for `c1cc(-c2nc(N3CCOCC3)c3sc(CN4CCN(Cc5ncc[nH]5)CC4)cc3n2)c2cn[nH]c2c1`, the IC50 was at most 0.1 µM.
Next, `OC(COc1ccccc1)CN1CCN(Cc2cc3nc(-c4cccc5[nH]ncc45)nc(N4CCOCC4)c3s2)CC1` (stereo unspecified): at most 0.1 µM; `c1cc(-c2nc(N3CCOCC3)c3sc(CN4CCOCC4)cc3n2)c2cn[nH]c2c1`: at most 0.1 µM.
As to `OCC1CCN(Cc2cc3nc(-c4cccc5[nH]ncc45)nc(N4CCOCC4)c3s2)CC1`, the IC50 is at most 0.1 µM.
On to `COCCN1[C@H](C)CN(Cc2cc3nc(-c4cccc5[nH]ncc45)nc(N4CCOCC4)c3s2)C[C@@H]1C`, for which the IC50 is at most 0.1 µM.
The compound `[O-][n+]1ccccc1CN1CCN(Cc2cc3nc(-c4cccc5[nH]ncc45)nc(N4CCOCC4)c3s2)CC1` returned an IC50 of at most 0.1 µM.
In turn, `COCCN(C)C(=O)N1CCN(Cc2cc3nc(-c4cccc5[nH]ncc45)nc(N4CCOCC4)c3s2)CC1` had a half-inhibitory concentration (IC50) of at most 0.1 µM.
In turn, `c1cc(-c2nc(N3CCOCC3)c3sc(CN4CCN(CC5CC5)CC4)cc3n2)c2cn[nH]c2c1` returned a half-maximal inhibitory concentration (IC50) of at most 0.1 µM.
Compound `CN(CCCS(C)(=O)=O)C1CCN(Cc2cc3nc(-c4cccc5[nH]ncc45)nc(N4CCOCC4)c3s2)CC1` registered an IC50 of at most 0.1 µM.
